pEC50: −log10 of the molar value.
Target: T1, glucokinase (GK), residues 12-465 of the human enzyme (Homo sapiens, UniProt P35557)
T1 construct: I.D. No. 1 corresponds to residues 12-465 of glucokinase; made in house; host or cells: E. coli DH10b-Tlr
T1 sequence (P35557 with tags, fused parts or gaps isoform P35557-2): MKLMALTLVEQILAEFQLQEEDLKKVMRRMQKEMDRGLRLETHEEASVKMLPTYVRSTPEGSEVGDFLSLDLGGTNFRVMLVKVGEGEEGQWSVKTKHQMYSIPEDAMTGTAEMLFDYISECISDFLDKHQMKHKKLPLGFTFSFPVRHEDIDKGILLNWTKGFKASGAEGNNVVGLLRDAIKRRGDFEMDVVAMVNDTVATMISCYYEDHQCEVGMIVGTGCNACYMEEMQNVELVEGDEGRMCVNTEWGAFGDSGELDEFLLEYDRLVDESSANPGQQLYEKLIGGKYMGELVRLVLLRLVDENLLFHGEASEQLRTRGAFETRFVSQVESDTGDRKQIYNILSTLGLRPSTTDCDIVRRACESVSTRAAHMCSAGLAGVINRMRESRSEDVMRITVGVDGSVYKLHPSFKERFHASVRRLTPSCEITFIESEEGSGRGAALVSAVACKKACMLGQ
Assay: Enzymatic glucokinase activity assay (KinaseGlo luminescence, ATP consumption)
Assay type: biochemical
Conditions: 5 μM ATP, 5 mM Glucose; for pEC50: GK activation, Kact = concentration giving 50% of the maximal increase in GK activity, read-out: pKact; for Emax: read-out: % ACTmax
How it was run: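 Activation measured as ATP consumption: residual ATP detected by KinaseGlo luminescence after 60 min at room temperature with 5 μM ATP and 5 mM glucose (Hepes pH 7.2, MgCl2, Brij35, DTT, 2% DMSO). Enzyme was recombinant FLAG-tagged protein from E. coli. Eleven-point twofold series were fitted nonlinearly for pKact and % ACTmax.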

[1] = calculated maximal gain in GK enzyme activity at a saturating concentration of the compound

pEC50	Emax [1] [%]	% ACTmax [1]	SMILES
5.60 to 5.80	74.1 to 97	–	N#Cc1ccc(S(=O)(=O)N2CCN([C@@H](CC3CCCCC3)C(=O)Nc3nccs3)C(=O)C2)c(Cl)c1 [Example 52, (S)-2-(4-(2-chloro-4-cyanophenylsulfonyl)-2-oxopiperazin-1-yl)-3-cyclohexyl-N-(thiazol-2-yl)propanamide]
≥ 6.20	≤ 74	–	O=C(Nc1nccs1)[C@H](CC1CCCCC1)N1CCN(S(=O)(=O)c2cc(Cl)c(Cl)s2)CC1=O [Example 170, (S)-3-cyclohexyl-2-(4-(4,5-dichlorothiophen-2-ylsulfonyl)-2-oxopiperazin-1-yl)-N-(thiazol-2-yl)propanamide]
≤ 5.50	≥ 119	–	Cc1n[nH]c(C)c1S(=O)(=O)N1CCN([C@@H](CC2CCCCC2)C(=O)Nc2nccs2)C(=O)C1 [Example 111, (S)-3-cyclohexyl-2-(4-(3,5-dimethyl-1H-pyrazol-4-ylsulfonyl)-2-oxopiperazin-1-yl)-N-(thiazol-2-yl)propanamide]
≤ 5.50	≤ 74	–	O=C(O)c1ccc(S(=O)(=O)N2CCN([C@@H](CC3CCCCC3)C(=O)Nc3nccs3)C(=O)C2)cc1 [Example 91, (S)-4-(4-(3-cyclohexyl-1-oxo-1-(thiazol-2-ylamino)propan-2-yl)-3-oxopiperazin-1-ylsulfonyl)benzoic acid]
5.90 to 6.10	97.1 to 107	–	O=C(Nc1nccs1)[C@H](CC1CCCCC1)N1CCN(C(=S)NCc2cccc(F)c2)CC1=O [Example 119, (S)-3-cyclohexyl-2-(4-(3-fluorobenzylcarbamothioyl)-2-oxopiperazin-1-yl)-N-(thiazol-2-yl)propanamide]
≥ 6.20	74.1 to 97	–	O=C(Nc1ncc(Cl)s1)[C@H](CC1CCOCC1)N1CCN(S(=O)(=O)c2cccs2)CC1=O [Example 37, (S)-N-(5-chlorothiazol-2-yl)-2-(2-oxo-4-(thiophen-2-ylsulfonyl)piperazin-1-yl)-3-(tetrahydro-2H-pyran-4-yl)propanamide]
5.90 to 6.10	≤ 74	–	O=C(Nc1nccs1)[C@H](CC1CCCCC1)N1CCN(S(=O)(=O)c2ccc(-c3nsc(Cl)n3)s2)CC1=O [Example 165, (S)-2-(4-(5-(5-chloro-1,2,4-thiadiazol-3-yl)thiophen-2-ylsulfonyl)-2-oxopiperazin-1-yl)-3-cyclohexyl-N-(thiazol-2-yl)propanamide]
≤ 5.50	≥ 119	–	N#Cc1cccc(NC(=S)N2CCN([C@@H](CC3CCCCC3)C(=O)Nc3nccs3)C(=O)C2)c1 [Example 116, (S)-2-(4-(3-cyanophenylcarbamothioyl)-2-oxopiperazin-1-yl)-3-cyclohexyl-N-(thiazol-2-yl)propanamide]
5.60 to 5.80	97.1 to 107	–	O=C(Nc1nccs1)[C@H](CC1CCCCC1)N1CCN(C(=S)NC2CCCCC2)CC1=O [Example 114, (S)-3-cyclohexyl-2-(4-(cyclohexylcarbamothioyl)-2-oxopiperazin-1-yl)-N-(thiazol-2-yl)propanamide]
≥ 6.20	97.1 to 107	–	O=C(Nc1nccs1)[C@H](CC1CCCCC1)N1CCN(C(=S)NCCN2CCCCC2)CC1=O [Example 121, (S)-3-cyclohexyl-2-(2-oxo-4-(2-(piperidin-1-yl)ethylcarbamothioyl)piperazin-1-yl)-N-(thiazol-2-yl)propanamide]
≤ 5.50	97.1 to 107	–	CC(=O)Nc1nc(C)c(S(=O)(=O)N2CCN([C@@H](CC3CCCCC3)C(=O)Nc3nccs3)C(=O)C2)s1 [Example 197, (S)-2-(4-(2-acetamido-4-methylthiazol-5-ylsulfonyl)-2-oxopiperazin-1-yl)-3-cyclohexyl-N-(thiazol-2-yl)propanamide]
≤ 5.50	≤ 74	–	O=C(Nc1nccs1)[C@H](CC1CCCCC1)N1CCN(C(=O)Nc2ccc3sccc3c2)CC1=O [Example 144, (S)-N-(benzo[b]thiophen-5-yl)-4-(3-cyclohexyl-1-oxo-1-(thiazol-2-ylamino)propan-2-yl)-3-oxopiperazine-1-carboxamide]
≥ 6.20	–	107.5-119.0%	O=C(Nc1nccs1)[C@H](CC1CCCCC1)N1CCN(S(=O)(=O)C2CC2)CC1=O [Example 2, (S)-3-cyclohexyl-2-(4-(cyclopropylsulfonyl)-2-oxopiperazin-1-yl)-N-(thiazol-2-yl)propanamide]
5.90 to 6.10	97.1 to 107	–	O=C(Nc1nccs1)[C@H](CC1CCCCC1)N1CCN(S(=O)(=O)c2cccc3nsnc23)CC1=O [Example 171, (S)-2-(4-(benzo[c][1,2,5]thiadiazol-4-ylsulfonyl)-2-oxopiperazin-1-yl)-3-cyclohexyl-N-(thiazol-2-yl)propanamide]
5.90 to 6.10	≤ 74	–	COc1cc(C)c(S(=O)(=O)N2CCN([C@@H](CC3CCCCC3)C(=O)Nc3nccs3)C(=O)C2)c(C)c1C [Example 182, (S)-3-cyclohexyl-2-(4-(4-methoxy-2,3,6-trimethylphenylsulfonyl)-2-oxopiperazin-1-yl)-N-(thiazol-2-yl)propanamide]
5.90 to 6.10	108 to 119	–	O=C(c1ccncc1)c1cccc(S(=O)(=O)N2CCN([C@@H](CC3CCCCC3)C(=O)Nc3nccs3)C(=O)C2)c1 [Example 179, (S)-3-cyclohexyl-2-(4-(3-isonicotinoylphenylsulfonyl)-2-oxopiperazin-1-yl)-N-(thiazol-2-yl)propanamide]
5.90 to 6.10	≤ 74	–	Cc1oncc1S(=O)(=O)N1CCN([C@@H](CC2CCCCC2)C(=O)Nc2nccs2)C(=O)C1 [Example 60, (S)-3-cyclohexyl-2-(4-(5-methylisoxazol-4-ylsulfonyl)-2-oxopiperazin-1-yl)-N-(thiazol-2-yl)propanamide]
5.60 to 5.80	108 to 119	–	Cc1cc(S(=O)(=O)N2CCN([C@@H](CC3CCCCC3)C(=O)Nc3nccs3)C(=O)C2)c(C(F)(F)F)o1 [Example 160, (S)-3-cyclohexyl-2-(4-(5-methyl-2-(trifluoromethyl)furan-3-ylsulfonyl)-2-oxopiperazin-1-yl)-N-(thiazol-2-yl)propanamide]
5.60 to 5.80	74.1 to 97	–	O=C(Nc1nccs1)[C@H](CC1CCCCC1)N1CCN(S(=O)(=O)c2ccc(OC(F)F)cc2)CC1=O [Example 70, (S)-3-cyclohexyl-2-(4-(4-(difluoromethoxy)phenylsulfonyl)-2-oxopiperazin-1-yl)-N-(thiazol-2-yl)propanamide]
≥ 6.20	108 to 119	–	Cc1ccc(S(=O)(=O)N2CCN([C@@H](CC3CCCCC3)C(=O)Nc3nccs3)C(=O)C2)c(F)c1 [Example 222, (S)-3-cyclohexyl-2-(4-(2-fluoro-4-methylphenylsulfonyl)-2-oxopiperazin-1-yl)-N-(thiazol-2-yl)propanamide]
5.90 to 6.10	97.1 to 107	–	COc1ccc(S(=O)(=O)N2CCN([C@@H](CC3CCCCC3)C(=O)Nc3nccs3)C(=O)C2)cc1 [Example 46, (S)-3-cyclohexyl-2-(4-(4-methoxyphenylsulfonyl)-2-oxopiperazin-1-yl)-N-(thiazol-2-yl)propanamide]
≥ 6.20	≥ 119	–	Cc1cc(C)cc(S(=O)(=O)N2CCN([C@@H](CC3CCCCC3)C(=O)Nc3nccs3)C(=O)C2)c1 [Example 195, (S)-3-cyclohexyl-2-(4-(3,5-dimethylphenylsulfonyl)-2-oxopiperazin-1-yl)-N-(thiazol-2-yl)propanamide]
≥ 6.20	108 to 119	–	Cc1ccc(F)cc1S(=O)(=O)N1CCN([C@@H](CC2CCCCC2)C(=O)Nc2nccs2)C(=O)C1 [Example 191, (S)-3-cyclohexyl-2-(4-(5-fluoro-2-methylphenylsulfonyl)-2-oxopiperazin-1-yl)-N-(thiazol-2-yl)propanamide]
≥ 6.20	108 to 119	–	Cn1ccc(S(=O)(=O)N2CCN([C@@H](CC3CCCCC3)C(=O)Nc3nccs3)C(=O)C2)n1 [Example 112, (S)-3-cyclohexyl-2-(4-(1-methyl-1H-pyrazol-3-ylsulfonyl)-2-oxopiperazin-1-yl)-N-(thiazol-2-yl)propanamide]
≥ 6.20	74.1 to 97	–	Cc1ccc([N+](=O)[O-])cc1S(=O)(=O)N1CCN([C@@H](CC2CCCCC2)C(=O)Nc2nccs2)C(=O)C1 [Example 199, (S)-3-cyclohexyl-2-(4-(2-methyl-5-nitrophenylsulfonyl)-2-oxopiperazin-1-yl)-N-(thiazol-2-yl)propanamide]
5.60 to 5.80	97.1 to 107	–	O=C(Nc1nccs1)[C@H](CC1CCCCC1)N1CCN(C(=S)Nc2cccc3ccccc23)CC1=O [Example 80, (S)-3-cyclohexyl-2-(4-(naphthalen-1-ylcarbamothioyl)-2-oxopiperazin-1-yl)-N-(thiazol-2-yl)propanamide]
5.60 to 5.80	97.1 to 107	–	O=C(Nc1ncc(Cl)s1)[C@H](CC1CCOCC1)N1CCN(S(=O)(=O)c2ccc(F)cc2)CC1=O [Example 34, (S)-N-(5-chlorothiazol-2-yl)-2-(4-(4-fluorophenylsulfonyl)-2-oxopiperazin-1-yl)-3-(tetrahydro-2H-pyran-4-yl)propanamide]

From US8173645B2 (Takeda San Diego, Inc., priority 2007, dated 2012)
